Our source for the Activity values is ChEMBL document CHEMBL1130335, “Comparative molecular field analysis of a series of paclitaxel analogues” (J Med Chem, 1997).

Structures are written as SMILES.

The nature of this experiment: Measured activity expressed as ID50 (analogue)/ID50 (paclitaxel), where ID50 is the concentration of compound leading to 50% inhibition of the rate microtubule disassembly. It counts as functional.
In the case of `CC(=O)O[C@@]12COC1C[C@H](O)[C@@]1(C)C(=O)[C@H](O)C3=C(C)[C@@H](OC(=O)[C@H](O)[C@@H](NC(=O)OC(C)(C)C)c4ccccc4)[C@@H]4OC(C)(C)O[C@]4([C@@H](OC(=O)c4ccccc4)[C@@H]12)C3(C)C` (some centres not stated), the Activity turned out to be 3.

Consider `CC(=O)O[C@@]12COC1C[C@H](O)[C@@]1(C)C(=O)[C@H](O)C3=C(C)[C@@H](OC(=O)[C@@H](NC(=O)OC(C)(C)C)[C@@H](O)c4ccccc4)C[C@@](O)([C@@H](OC(=O)c4ccccc4)[C@@H]12)C3(C)C` (some centres not stated), for which the Activity worked out at 160.

In turn, `CC(=O)O[C@@]12COC1C[C@H](O)[C@@]1(C)C(=O)[C@H](O)C3=C(C)[C@@H](OC(=O)[C@H](O)[C@H](NC(=O)N(C)c4ccc[nH]4)C(C)(C)C)C[C@@](O)([C@@H](OC(=O)c4ccccc4)[C@@H]12)C3(C)C` (some centres not stated) registered an Activity of 0.96.

Compound `CC(=O)O[C@@H]1C2=C(C)[C@@H](OC(=O)[C@H](O)[C@@H](NC(=O)OC(C)C)c3ccccc3)C[C@@](O)([C@@H](OC(=O)c3ccccc3)[C@H]3[C@@](C)([C@@H](O)CC4OC[C@]43OC(C)=O)[C@H]1O)C2(C)C` (some centres not stated) displayed an Activity of 0.75.

For the compound `CC(=O)O[C@H]1C(=O)[C@]2(C)[C@@H](O)CC3OC[C@@]3(OC(C)=O)[C@H]2[C@H](OC(=O)c2ccccc2)[C@]2(O)C[C@H](OC(=O)[C@@H](O)[C@@H](NC(=O)OC(C)(C)C)c3ccccc3)C(C)=C1C2(C)C` (some centres not stated), the Activity is 30.

In turn, `COC(=O)[C@@H](C(=O)O[C@H]1C[C@@]2(O)[C@@H](OC(=O)c3ccccc3)[C@H]3[C@](C)(C(=O)[C@H](OC(C)=O)C(=C1C)C2(C)C)[C@@H](O)CC1OC[C@]13OC(C)=O)[C@H](NC(=O)c1ccccc1)c1ccccc1` (some centres not stated) gave an Activity of 30.

`CC(=O)O[C@H]1C(=O)[C@]2(C)[C@@H](O)CC3OC[C@@]3(OC(C)=O)[C@H]2[C@H](OC(=O)c2ccccc2)[C@]2(O)C[C@H](OC(=O)[C@H](O)[C@H](NC(=O)c3ccc(C(F)(F)F)cc3)c3ccccc3)C(C)=C1C2(C)C` (some centres not stated) yielded an Activity of 6.

For the compound `CC(=O)O[C@H]1C(=O)[C@]2(C)[C@@H](O)CC3OC[C@@]3(OC(C)=O)[C@H]2[C@H](OC(=O)c2ccccc2)[C@]2(O)C[C@H](OC(=O)[C@H](O)[C@H](NC(=O)c3ccc(C)cc3)c3ccccc3)C(C)=C1C2(C)C` (some centres not stated), the Activity was 1.1.

`CC(=O)O[C@@]12COC1C[C@H](O)[C@@]1(C)C(=O)[C@H](O)C3=C(C)[C@@H](OC(=O)[C@H](NC(=O)c4ccccc4)[C@H](O)c4ccccc4)C[C@@](O)([C@@H](OC(=O)c4ccccc4)[C@@H]12)C3(C)C` (some centres not stated): the Activity came out at 10.

The compound `CC(=O)O[C@@]12COC1C[C@H](O)[C@@]1(C)C(=O)[C@H](O)C3=C(C)[C@@H](OC(=O)[C@H](O)[C@H](NC(=O)OC(C)(C)C)c4ccccc4)C[C@@](O)([C@@H](OC(=O)c4ccccc4)[C@@H]12)C3(C)C` (some centres not stated) gave an Activity of 0.6.

For `CC(=O)O[C@H]1C(=O)[C@]2(C)[C@@H](O)CC3OC[C@@]3(OC(C)=O)[C@H]2[C@H](OC(=O)c2ccccc2)[C@]2(O)C[C@H](OC(=O)[C@H](O)[C@@H](NC(=O)c3ccccc3)C3CCCCC3)C(C)=C1C2(C)C` (some centres not stated), the Activity was determined as 0.29.

`CCOC(=O)N[C@@H](c1ccccc1)[C@@H](O)C(=O)O[C@H]1C[C@@]2(O)[C@@H](OC(=O)c3ccccc3)[C@H]3[C@@](C)([C@@H](O)CC4OC[C@]43OC(C)=O)[C@@H](O)[C@H](OC(C)=O)C(=C1C)C2(C)C` (some centres not stated) came in with an Activity of 0.82.

In turn, `CC(=O)O[C@H]1C(=O)[C@]2(C)[C@@H](O)CC3OC[C@@]3(OC(C)=O)[C@H]2[C@H](OC(=O)c2ccccc2)[C@]2(O)C[C@H](OC(=O)[C@H](O)[C@H](NC(=O)c3ccccc3)c3ccc(Cl)cc3)C(C)=C1C2(C)C` (some centres not stated) showed an Activity of 2.4.

Turning to `CC(=O)O[C@H]1C(=O)[C@]2(C)[C@@H](O)CC3OC[C@@]3(OC(C)=O)[C@H]2[C@H](OC(=O)c2ccccc2)[C@]2(O)C[C@H](OC(=O)[C@H](O)[C@H](NC(=O)c3ccccc3)c3ccccn3)C(C)=C1C2(C)C` (some centres not stated), the Activity was determined as 0.7.

The compound `CC(=O)O[C@H]1C(=O)[C@]2(C)[C@@H](O)CC3OC[C@@]3(OC(C)=O)[C@H]2[C@H](OC(=O)C2CCCCC2)[C@]2(O)C[C@H](OC(=O)[C@H](O)[C@@H](NC(=O)OC(C)(C)C)c3ccccc3)C(C)=C1C2(C)C` (some centres not stated) displayed an Activity of 0.67.

Regarding `CC(=O)O[C@H]1C(=O)[C@]2(C)[C@@H](O)CC3OC[C@@]3(OC(C)=O)[C@H]2[C@H](OC(=O)c2ccccc2)[C@]2(O)C[C@H](OC(=O)[C@H](O)[C@H](NC(=O)c3ccccc3)c3ccc(O)cc3)C(C)=C1C2(C)C` (some centres not stated), the Activity came out at 0.8.

In turn, `CC(=O)O[C@@]12COC1C[C@H](O)[C@@]1(C)C(=O)[C@H](O)C3=C(C)[C@@H](OC(=O)[C@H](O)[C@@H](NC(=O)OC(C)(C)C)c4ccccc4)[C@H](O)[C@@](O)([C@@H](OC(=O)c4ccccc4)[C@@H]12)C3(C)C` (some centres not stated) displayed an Activity of 0.8.

In turn, `CC(=O)O[C@@]12COC1C[C@H](O)[C@@]1(C)C(=O)[C@H](O)C3=C(C)[C@@H](OC(=O)[C@H](O)[C@@H](C=C(C)C)NC(=O)OC(C)(C)C)C[C@@](O)([C@@H](OC(=O)c4ccccc4)[C@@H]12)C3(C)C` (some centres not stated) gave an Activity of 0.64.

In turn, `CC(=O)O[C@@]12COC1C[C@H](O)[C@@]1(C)C(=O)[C@H](O)C3=C(C)[C@@H](OC(=O)[C@@H](O)Cc4ccccc4)C[C@@](O)([C@@H](OC(=O)c4ccccc4)[C@@H]12)C3(C)C` (some centres not stated) had an Activity of 3.5.

Regarding `CC(=O)O[C@@H]1C2=C(C)[C@@H](OC(=O)[C@H](O)[C@@H](NC(=O)OC(C)(C)C)C3CCCCC3)C[C@@](O)([C@@H](OC(=O)c3ccccc3)[C@H]3[C@@](C)([C@@H](O)CC4OC[C@]43OC(C)=O)[C@H]1O)C2(C)C` (some centres not stated), the Activity came to 0.57.

Regarding `CC(=O)O[C@H]1C(=O)[C@]2(C)[C@@H](O)CC3OC[C@@]3(OC(C)=O)[C@H]2[C@H](OC(=O)c2ccccc2)[C@]2(O)C[C@H](OC(=O)[C@H](O)[C@H](NC(=O)c3ccccc3)c3ccc(C)cc3)C(C)=C1C2(C)C` (some centres not stated), the Activity stood at 0.8.

The compound `CC(=O)O[C@@]12COC1C[C@H](O)[C@@]1(C)C(=O)[C@H](O)C3=C(C)[C@@H](OC(=O)[C@H](O)Cc4ccccc4)C[C@@](O)([C@@H](OC(=O)c4ccccc4)[C@@H]12)C3(C)C` (some centres not stated) yielded an Activity of 4.5.

The compound `CC(=O)O[C@H]1C(=O)[C@]2(C)[C@@H](O)CC3OC[C@@]3(OC(C)=O)[C@H]2[C@H](OC(=O)c2ccccc2)[C@]2(O)C[C@H](OC(=O)[C@H](O)[C@H](NC(=O)c3ccccc3)c3ccco3)C(C)=C1C2(C)C` (some centres not stated) came in with an Activity of 0.9.

With `CC(=O)O[C@@]12COC1C[C@H](O)[C@@]1(C)C(=O)[C@H](O)C3=C(C)[C@@H](OC(=O)[C@H](O)[C@H](NC(=O)C4CCCC4)C(C)(C)C)C[C@@](O)([C@@H](OC(=O)c4ccccc4)[C@@H]12)C3(C)C` (some centres not stated), the Activity came out at 1.5.

Take `CCCC[C@H](NC(=O)OC(C)(C)C)[C@@H](O)C(=O)O[C@H]1C[C@@]2(O)[C@@H](OC(=O)c3ccccc3)[C@H]3[C@@](C)([C@@H](O)CC4OC[C@]43OC(C)=O)[C@@H](O)[C@H](OC(C)=O)C(=C1C)C2(C)C` (some centres not stated): the Activity is 9.74.

In turn, `CC(=O)O[C@H]1C(=O)[C@]2(C)[C@@H](O)CC3OC[C@@]3(OC(C)=O)[C@H]2[C@H](OC(=O)c2ccccc2)[C@]2(O)C[C@H](OC(=O)[C@@H](NC(=O)OC(C)(C)C)[C@@H](O)c3ccccc3)C(C)=C1C2(C)C` (some centres not stated) had an Activity of 108.

In turn, `CC(=O)O[C@H]1C(=O)[C@]2(C)[C@@H](O)CC3OC[C@@]3(OC(C)=O)[C@H]2[C@H](OC(=O)c2ccccc2)[C@]2(O)C[C@H](OC(=O)[C@H](O)[C@H](NC(=O)c3ccccc3)c3ccc(Cl)c(Cl)c3)C(C)=C1C2(C)C` (some centres not stated) showed an Activity of 7.1.
